{"source": "ChEMBL document CHEMBL1155115", "about": "(J Med Chem, 2008)", "key": {"Dictyostelium discoideum": {"system": "Dictyostelium discoideum", "assay": "Antimicrobial activity against Dictyostelium discoideum", "assay_type": "functional, organism-based"}, "[1]": {"biological_target": "T1, Farnesyl pyrophosphate synthase (Homo sapiens) (UniProt P14324)", "T1 sequence (whole entry)": "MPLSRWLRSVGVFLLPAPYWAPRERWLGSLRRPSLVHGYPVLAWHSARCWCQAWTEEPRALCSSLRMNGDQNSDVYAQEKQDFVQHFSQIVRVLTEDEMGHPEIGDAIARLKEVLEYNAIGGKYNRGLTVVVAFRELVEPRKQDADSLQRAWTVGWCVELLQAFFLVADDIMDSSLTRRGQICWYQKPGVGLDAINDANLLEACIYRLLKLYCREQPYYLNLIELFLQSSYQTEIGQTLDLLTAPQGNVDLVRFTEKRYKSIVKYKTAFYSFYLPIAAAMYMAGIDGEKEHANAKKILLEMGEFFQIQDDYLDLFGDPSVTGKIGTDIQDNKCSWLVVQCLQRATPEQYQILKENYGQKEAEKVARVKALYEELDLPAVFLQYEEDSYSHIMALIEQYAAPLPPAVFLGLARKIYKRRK", "assay": "Inhibition of farnesyl diphosphate synthase at 30 nM"}, "[2]": {"biological_target": "T1, Farnesyl pyrophosphate synthase (Homo sapiens)", "assay": "Inhibition of farnesyl diphosphate synthase at 35 nM"}}, "data": [{"smiles": "O=P(O)(O)C(O)(CC1CCCNC1)P(=O)(O)O", "note": "(stereo unspecified)", "values": [{"measurement": "IC50", "setting": "Dictyostelium discoideum", "result": 30, "unit": "µM"}, {"measurement": "inhibition", "setting": "[1]", "result": 58, "unit": "%"}]}, {"smiles": "Nc1ccccc1CC(O)(P(=O)(O)O)P(=O)(O)O", "values": [{"measurement": "IC50", "setting": "Dictyostelium discoideum", "result": 18, "unit": "µM"}]}, {"smiles": "O=P(O)(O)C(O)(Cc1ccccc1)P(=O)(O)O", "values": [{"measurement": "IC50", "setting": "Dictyostelium discoideum", "result": "< 240", "unit": "µM"}]}, {"smiles": "CC[n+]1cccc(CC(P(=O)([O-])O)P(=O)(O)O)c1", "note": "(stereo unspecified)", "values": [{"measurement": "IC50", "setting": "Dictyostelium discoideum", "result": 27, "unit": "µM"}, {"measurement": "inhibition", "setting": "[2]", "result": 59, "unit": "%"}]}]}
